Assay [1] relates to c-KIT1 (DNA, G4) GGGAGGGCGCTGGGAGGAGGG
Briefly: UV-Vis titration. The following applies: K+ (100 mM KF, 10 mM potassium phosphate); PBS pH 7.4, ca. 20 °C; 2 μM DNA; 1:1 fit.

Assay [2] relates to h-TELO (DNA, G4) AGGGTTAGGGTTAGGGTTAGGGT
The assay can be described thus: variable-temperature CD. The conditions noted are these: K+ (100 mM KF, 10 mM potassium phosphate); PBS pH 7.4; 5 μM DNA, 5 equivalents (25 μM) compound.

Assay [3] concerns TBA (DNA, G4) GGTTGGTGTGGTTGG
Briefly: variable-temperature CD. The following applies: K+ (100 mM KF, 10 mM potassium phosphate); PBS pH 7.4; 5 μM DNA, 5 equivalents (25 μM) compound.

Assay [4] relates to dsDNA (DNA, hairpin, HEG linker (non-nucleotide loop) between 10 and 11) TATAGCTATATATAGCTATA
Briefly: UV-Vis titration. The following applies: K+ (100 mM KF, 10 mM potassium phosphate); PBS pH 7.4, ca. 20 °C; 5 μM DNA; 1:1 fit; per base.

For assay [5], the system named is c-KIT1 (DNA, G4) GGGAGGGCGCTGGGAGGAGGG
The assay can be described thus: variable-temperature CD. The conditions noted are these: K+ (100 mM KF, 10 mM potassium phosphate); PBS pH 7.4; 2 μM DNA, 5 equivalents (10 μM) compound.

Assay [6] has as its system h-TELO (DNA, G4) AGGGTTAGGGTTAGGGTTAGGGT
Briefly: UV-Vis titration. The following applies: K+ (100 mM KF, 10 mM potassium phosphate); PBS pH 7.4, ca. 20 °C; 5 μM DNA; 1:1 fit.

In assay [7] the test system is dsDNA (DNA, hairpin, HEG linker (non-nucleotide loop) between 10 and 11) TATAGCTATATATAGCTATA
The assay can be described thus: variable-temperature CD. The following applies: K+ (100 mM KF, 10 mM potassium phosphate); PBS pH 7.4; 5 μM DNA, 5 equivalents (25 μM) compound; per base.

The term KD denotes the concentration at which binding is half-saturated. Read a high KD as a looser complex. In general, ΔTm refers to the change in melting temperature against a reference sample. On to `CC(C)(C)OC(=O)N[C@@H](CN1C(=O)c2ccc3c4c(ccc(c24)C1=O)C(=O)N(C[C@H](NC(=O)OC(C)(C)C)C(=O)O)C3=O)C(=O)O`, for which the dissociation constant (KD) in assay [1] amounted to 2.6 ± 0.4 µM; in assay [4] it was 65.2 ± 35.9 µM. Besides, the ΔTm is 2.4 °C in assay [2], 0.1 °C in assay [3] and 5.4 °C in assay [5].

Regarding `CC(C)(C)OC(=O)N[C@H](CN1C(=O)c2ccc3c4c(ccc(c24)C1=O)C(=O)N(C[C@@H](NC(=O)OC(C)(C)C)C(=O)O)C3=O)C(=O)O`, the KD is 8.0 ± 2.5 µM in assay [1] and 30.7 ± 6.9 µM in assay [4]. Also, the ΔTm in assay [5] was found to be 1.7 °C.

With `CC(C)C[C@@H](CC(=O)O)N1C(=O)c2ccc3c4c(ccc(c24)C1=O)C(=O)N([C@H](CC(=O)O)CC(C)C)C3=O`, the ΔTm in assay [2] is 1.7 °C; in assay [3], −0.1 °C. In addition, the KD in assay [6] was determined as 11.0 ± 3.1 µM; in assay [4], 23.6 ± 8.4 µM.

Take `CC(C)C[C@H](CC(=O)O)N1C(=O)c2ccc3c4c(ccc(c24)C1=O)C(=O)N([C@@H](CC(=O)O)CC(C)C)C3=O`: the KD was 13.6 ± 3.4 µM in assay [6] and 50.2 ± 15.4 µM in assay [4]. In addition, the ΔTm in assay [5] was −0.9 °C.

As for `C[C@@H](CC(=O)O)N1C(=O)c2ccc3c4c(ccc(c24)C1=O)C(=O)N([C@@H](C)CC(=O)O)C3=O`, the ΔTm is 0.2 °C in assay [2] and −2.1 °C in assay [7].

Take `O=C(O)[C@@H](O)CN1C(=O)c2ccc3c4c(ccc(c24)C1=O)C(=O)N(C[C@H](O)C(=O)O)C3=O`: the thermal shift (ΔTm) in assay [5] worked out at 3.2 °C.

Turning to `O=C(O)[C@@H](O)[C@@H](Cc1ccccc1)N1C(=O)c2ccc3c4c(ccc(c24)C1=O)C(=O)N([C@H](Cc1ccccc1)[C@H](O)C(=O)O)C3=O`, the ΔTm in assay [3] is 0.8 °C; in assay [7], −0.1 °C.

The values are drawn from publication PMC10647805 (2023).
